These results are taken from paper PMC7762498, “Demethoxycurcumin analogue DMC-BH exhibits potent anticancer effects on orthotopic glioblastomas” (Aging (Albany NY), 2020).

Series [1] is described as follows: Octanol-water partition coefficient. The class given is physicochemical. The text has this:
To determine whether DMC-BH inhibits the growth of glioma in the brain, we assessed its octanol-water partition coefficients and BBB penetrability. The hydrophobic parameters (logP) of DMC-BH and DMC were estimated under physiological as well as in acidic and basic conditions. The logP values for DMC-BH were negative at pH 2.5 and pH 9.0, as it was an amphoteric compound. At low pH or high pH conditions, DMC-BH occurred in the form of salts, and its logP values became negative due to better solubility.
Figure 2 Octanol-water partition coefficients (logP) and BBB penetrability of DMC-BH. (A) The logP was defined as log(Coctanol/Cwater). The amount of the compound in the water phase was determined spectrophotometrically, and the amount in the octanol phase was obtained by subtracting the supernatant concentration from the total concentration. (B) The BBB penetrability was defined as a brain-to-plasma AUC(time point) ratio. Values are expressed as the means ± SEM of 3 independent experiments.
The partition coefficient (P) between n-octanol and water was determined. The buffer mixture (0.05 M citric buffer, pH 2.5; 0.05 M acetic acid buffer, pH 5.5; 5 mM PBS, pH 7.4; or 0.05 M bicarbonate buffer, pH 9.0) and n-octanol was pre-equilibrated overnight at room temperature. After addition of the DMC or DMC-BH, the mixture was vortexed for 10 minutes and incubated at room temperature for an additional 15 minutes before centrifugation at 1000 g for 5 minutes. The amount of the compound in water phase was determined spectrophotometrically using standard curves, and the amount in lipid phase was obtained by subtracting the supernatant concentration from the total concentration, measured before mixing of the phases. P was determined according to P = (noct/Voct)/(nw/Vw), where n denotes the number of compound moles, V is the volume and the subscripts oct and w refer to n-octanol and aqueous phase, respectively.

In a further series the test system is ICR mice. Description: in vivo. The conditions noted are these: mouse; for Mortality rate (%) / No. of dead mice: female, ICR, 14 days.
A further series has as its system U251 glioma cells. Description: MTT cell viability assay, U251. The format is cell-based. Particulars: Homo sapiens, U-251, 72 hours. On the procedure:
(§1) To investigate the cytotoxicity of DMC-BH on glioma cells (Figure 1A), we used an MTT assay to assess viability changes in SHG-44, C6, U251, U87, A172 and primary glioma cells treated with various concentrations of DMC-BH for 24, 48 or 72 hours (Figure 1B–1H). […] U251 and SHG-44 cells were more sensitive to DMC-BH. We then used the human glial cell line, HEB, to evaluate the toxicity of DMC-BH in normal cells. […] DMC-BH was not toxic to normal cells.
(§2) The human GBM U87-luc cell line was purchased from the Shanghai Sunbio Medical Biotechnology Co., Ltd. (Shanghai, China). Cells were cultured in DMEM supplemented with 10% fetal bovine serum (FBS) and maintained in an incubator at 37° C and 5% CO2. After cells were routinely passaged at 2- to 3-day intervals, animal experiments were carried out when the cells entered exponential growth phase. Rat C6, human SHG-44, U87, A172 and U251 glioma cells were obtained from the Shanghai Institute of Cell Biology, Chinese Academy of Sciences (Shanghai, China). Primary glioma cells were preserved by our laboratory from previous studies. […]
(§3) Glioblastoma cells were seeded into 96-well plates and exposed to vehicle (PBS) or different concentrations of DMC-BH for 24, 48 or 72 hours. Cell viability was measured using an MTT assay and was expressed as a ratio to the absorbance value of the control cells at 570 nm.
On the technique in general: Tetrazolium assays rely on reduction of a dye to a coloured formazan, in cell work by metabolically active cells.

The subject of the next series is U87 glioma cells. Description: MTT cell viability assay, U87. The format is cell-based. Particulars: Homo sapiens, U-87 MG, 72 hours. On the procedure: as §1, §2, §3
A further series deals with A172 glioma cells. Description: MTT cell viability assay, A172. The format is cell-based. The conditions noted are these: Homo sapiens, A 172, 72 hours. On the procedure: as §1, §2, §3
The next series can be described thus: Plasma protein binding. The format is in vitro ADME.
The test system of another series is SHG-44 glioma cells. Description: MTT cell viability assay, SHG-44. Particulars: Homo sapiens, SHG-44 cells, 72 hours. The class given is cell-based. As for the experimental part:
as §1, §2, §3

The subject of series [2] is glioblastoma multiforme (GBM) patient derived tumors. Description: Patient-derived tumor xenograft (PDTX) model. The format is in vivo, mice. The text has this:
In recent years, PDTX models have been used to mimic human tumors. These models are more clinically relevant than cell line-based xenograft models. Thus, we performed an in vivo study in a PDTX tumor model by implanting human glioma samples from a patient donor into B-NDG mice (Figure 7A).
Figure 7 In vivo anti-tumor activity of DMC-BH in the PDTX tumor model. (A) A scheme illustrating the process of creating the patient-derived tumor model. (B) Tumor growth curves of mice after treatment with 7.5 mg/kg, 15 mg/kg or 30 mg/kg DMC-BH or 20 mg/kg TMZ. (C) Average tumor weight at day 21 after different treatments. (D) Quantification of the Ki67-positive area in different treatment groups. (E) Representative H&E-stained tumor slices and Ki67 immunofluorescence labeled tumor tissue sections from different treatments groups. The data are shown as mean ± SD (n = 6).
Surgically resected human glioma tissue was obtained from a cancer patient (#0407002) following an approved Nanjing Medicinal University Institutional Review Board protocol. Within 2 hours of surgical resection, tumor tissues were cut into 1-2 mm fragments and implanted into SCID mice (B-NDG, 6 weeks old, female) using a surgical procedure approved by Nanjing Medicinal University Institutional Animal Care and Use committee. After surgery, tumor growth in the mice was monitored by palpating the abdomen twice per week. Tumors grew to 5-10 mm in diameter in about 8-10 weeks. The SCID mice bearing PDTX tumors were sacrificed, and tumor fragments of 1 to 2 mm in size were implanted into 6-week-old female SCID mice. Over 60% of the mice experienced tumor growth in approximately 6 weeks.
For orientation: In xenograft studies the graft and the host belong to different species.

The subject of a further series is primary glioma cells. Description: MTT cell viability assay, primary glioma cells. The class given is cell-based. Particulars: 72 h. As for the experimental part:
as §1, §2, §3

The subject of series [3] is human glial cell line, HEB. Description: MTT assay on normal glial cells. Particulars: 24 hours of incubation with 32 μM. The class given is cell-based. As for the experimental part: as §1, §3
The mark [4] stands for this setting: B-NDG mice, DMC-BH 7.5, 15 or 30 mg/kg, TMZ 20 mg/kg.

Like-named read-outs stand apart in the source and are kept apart here.

Regarding `COc1cc(C=CC(=O)CC(=O)C=Cc2ccc(O)c(CN3CCCC3)c2)ccc1O` [DMC-BH, 1-[4-Hydroxy-3-(pyrrolidin-1-ylmethyl)phenyl]-7-(4-hydroxy-3-methoxyphenyl) hepta-1,6-diene-3,5-dione], the logP – broadly, the decadic logarithm of the partition coefficient of the neutral form, usually between octanol and water – in [1] (n-octanol/water (buffer), pH 7.4, n-octanol/water, read-out: logP) is 3.26; in series [1] (pH 2.5, n-octanol/water), “negative”; in [1] (pH 9.0, n-octanol/water) it was “negative”. Further, the “Mortality rate (%)” value turned out to be 0.0% with ICR mice (5 mg/kg), 0.0% with ICR mice (10 mg/kg), 0.0% with ICR mice (20 mg/kg) and 10.0% in the series with ICR mice (30 mg/kg). For the same compound, the “No. of dead mice” value in the series on ICR mice (5 mg/kg) was 0; in the series with ICR mice (10 mg/kg), 0; in the series with ICR mice (20 mg/kg), 0; with ICR mice (30 mg/kg) it was 1. In the series with ICR mice, the “abnormalities compared to the control mice” value is reported as “no abnormalities”. Besides, the IC50 (as a rule, the point on the concentration scale where inhibition reaches its midpoint) in the series on U251 glioma cells is 2520 nM; with U87 glioma cells, 4.77 µM; with A172 glioma cells it was 5.68 µM; with SHG-44 glioma cells it was 3.08 µM; in the series on primary glioma cells (primary glioma cells sample 1, 72 hours), 8.05 µM; in the series on primary glioma cells (primary glioma cells sample 2, 72 hours), 4.61 µM. For the same compound, the free fraction (fraction unbound) (commonly free concentration divided by total concentration) in the series “Plasma protein binding” was 0.038. Besides, the “tolerability in PDTX model” value in series [2] (setting [4]) is on record as “tolerated”. In addition, the “tumor growth in PDTX model” value in series [2] (setting [4]) is “significant tumor regression”. In addition, the “number of Ki67-positive cells in tumor” value in [2] (PDTX tumor, 20 mg/kg, compared with the control tumor) is reported as “marked decrease”. Moreover, the “viability of HEB cells” value in series [3] is “not reduced markedly”.
